From patent US20210156844A1, “TMEM16A Modulation for Diagnostic or Therapeutic Use in Pulmonary Hypertension (PH)” (Bayer Aktiengesellschaft, priority 2017, published 2021)

Key:
TMEM16A = target: T1, TMEM16A (Homo sapiens, UniProt Q5XXA6); assay: Measurement of whole-cell Ca2+-activated Cl- current (IClCa), voltage clamp, primary PASMC; type: cell-based; settings: benzbromarone 30 μM; primary PASMC of both donors and IPAH patients
T1 construct: endogenous in cells; host or cells: primary human PASMC from healthy donors and IPAH patients
T1 sequence (Q5XXA6 1-986): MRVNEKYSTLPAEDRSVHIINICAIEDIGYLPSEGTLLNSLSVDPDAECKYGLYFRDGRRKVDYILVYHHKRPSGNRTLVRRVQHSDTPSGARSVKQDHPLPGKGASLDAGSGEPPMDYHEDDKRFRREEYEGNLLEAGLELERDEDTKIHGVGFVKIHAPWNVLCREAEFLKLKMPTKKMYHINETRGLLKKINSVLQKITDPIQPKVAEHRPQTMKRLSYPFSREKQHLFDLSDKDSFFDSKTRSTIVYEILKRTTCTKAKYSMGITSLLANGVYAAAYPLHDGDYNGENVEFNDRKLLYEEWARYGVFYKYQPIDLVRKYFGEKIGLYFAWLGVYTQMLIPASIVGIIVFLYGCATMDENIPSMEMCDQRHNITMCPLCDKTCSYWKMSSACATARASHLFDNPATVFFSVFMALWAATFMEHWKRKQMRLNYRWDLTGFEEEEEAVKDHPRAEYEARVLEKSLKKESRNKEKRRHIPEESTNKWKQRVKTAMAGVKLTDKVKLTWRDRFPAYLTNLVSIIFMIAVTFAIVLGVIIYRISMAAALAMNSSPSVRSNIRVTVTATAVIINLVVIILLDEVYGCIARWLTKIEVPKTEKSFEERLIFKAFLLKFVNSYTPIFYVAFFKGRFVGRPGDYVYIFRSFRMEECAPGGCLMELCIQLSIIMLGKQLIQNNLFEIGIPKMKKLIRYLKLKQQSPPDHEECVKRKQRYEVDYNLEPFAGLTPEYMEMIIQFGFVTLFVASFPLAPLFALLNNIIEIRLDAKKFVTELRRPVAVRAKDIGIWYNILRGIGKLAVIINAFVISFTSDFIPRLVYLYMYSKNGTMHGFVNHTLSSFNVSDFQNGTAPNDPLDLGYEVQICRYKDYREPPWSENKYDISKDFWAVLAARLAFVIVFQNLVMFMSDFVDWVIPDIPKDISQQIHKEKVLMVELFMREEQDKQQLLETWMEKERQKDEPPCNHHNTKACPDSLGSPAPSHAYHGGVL
Protocol: For the measurement of whole-cell IClCa, PASMC grown in T-25 tissue culture flasks were freshly harvested with StemPro Accutase (Life Technologies), centrifuged (300 g, 5 min) and resuspended in Complete SMC Medium. PASMC were stored at 4° C. until use and were allowed to attach to glass coverslips for 15-30 min at room temperature before the measurements. Cells were perfused with a bath solution composed of (in mM) NaCl 150, glucose 10, HEPES 10, CaCl2 1, MgCl2 1, pH 7.4 (NaOH). The pipette solution contained (in mM) CsCl 110, TEA-Cl 20, EGTA 5, HEPES 10, Na2ATP 1, CaCl2 4.68, MgCl2 1, pH 7.2 (NaOH). The free Ca^2+ concentration of this solution was 2 μM as calculated with the MaxChelator software. In order to minimize K^+ current contamination of the recordings, after the formation of whole-cell configuration the bath solution was switched to a bath composed of (in mM) NaCl 140, glucose 10, HEPES 10, TEA-Cl 10, CaCl2 1, MgCl2 1, pH 7.4 (NaOH). In order to measure IClCa, the command potential was stepped from a 0 mV holding potential to −40, 0, +40, +80 and +120 mV for 1.5 s, allowing 0.5 s recovery time at the holding potential between each step. The average current measured between 750 and 1500 ms of each voltage step was plotted against the […]. […] Cells from the same batch that were cultured, harvested and recorded under normoxic conditions served as controls.

[1] = test system: U-46619 preconstricted isolated mouse PA; assay: Measurement of pulmonary artery tone ex vivo
Protocol: Pulmonary artery rings were isolated from male C57BL/6J mice (20-25 weeks old, Charles River, Wilmington Mass., USA), as described by Jain et al. (Jain, P P, et al., Int. J. Nanomedicine (2014) 9, 3249-3261). Following stable contraction (approx. 30 minutes post-addition of U-46619, 30 nM), the arteries were subjected to cumulatively increasing concentrations (0.1 to 30 μM) of the TMEM6A blockers T16Ainh-A01 (Tocris) and benzbromarone (Sigma) in order to analyze the concentration-response relationships.

SMILES: CCc1oc2ccccc2c1C(=O)c1cc(Br)c(O)c(Br)c1 [benzbromarone, (2-Ethyl-3-benzofuranyl)-(3,5-dibrom-4-hydroxyphenyl)ketone]
- whole-cell IClCa (TMEM16A): significantly decreased
- vasorelaxation of preconstricted PA ([1]; cumulatively increasing concentrations 0.1 to 30 μM, U-46619 30 nM): dose-dependent vasorelaxation
- potency compared with T16Ainh-A01 ([1]; ex vivo PA vasodilator response): more potent
